This is an account of results in PMC3283556, “The Activities of Current Antimalarial Drugs on the Life Cycle Stages of Plasmodium: A Comparative Study with Human and Rodent Parasites” (PLoS Medicine, 2012).

SMILES strings stand for the structures. Like-named read-outs stand apart in the source and are kept apart here. Where only a bound is given, the exact number is not on record here.

In data set [1] the test system is P. yoelii liver stage parasites (liver schizonts). Kind of data set: P. yoelii liver stage assay in HepG2 cells (EEF immunofluorescence). The class given is cell-based, Plasmodium yoelii. The settings on record: Plasmodium yoelii. As for the experimental part:
(§1) 7.5×10^3 HepG2 cells in 50 µl of medium (1.5×10^5 cells/ml) were seeded in 384 well plates (Aurora 384 IQ-EB Black/Clear Plates) 20–26 h prior to the actual infection. 2 h prior to infection, 50 nl of compound in DMSO (0.1% final DMSO concentration per well) were transferred with a PinTool (GNF Systems) into the assay plates (10 µM final concentration). P. yoelii sporozoites were freshly dissected from infected A. stephensi mosquito salivary glands and filtered twice with a 40-µm strainer. The HepG2 cells were then infected with 8×10^3 sporozoites per well. After infection and 1-h incubation at 37°C, the cultures were washed, new media and compound added, and further incubated with 5-fold increased concentration of penicillin/streptomycin for 48 h at 37°C before exoerythrocytic forms (EEFs) quantification of infected cells by immunofluorescence.
After washing with 1×PBS and fixation of the cells with 4% paraformaldehyde solution (EMS), membranes were permeabilised with 0.5% Triton-X-100 (Thermo Fisher Scientific) and EEFs were stained using a mouse polyclonal serum raised against the Plasmodium heat shock protein 70 (HSP70), an Alexa goat antimouse IgG, Fca-specific DyLight 649 secondary antibody (Invitrogen), and the Hoechst 33342 nucleic acid dye (Invitrogen). Stained EEFs were then quantified using the Opera Confocal High Content Screening system (PerkinElmer). Images were collected using a 20× magnification at a binning of 2 using a 365 Xeon arc lamp illumination to detect the nuclei and 635-nm laser line to excite DyLight649.
(§2) High-content imaging of infected HepG2-CD81 cells was performed as described in Meister et al.. Wells were analysed using a custom Acapella (PerkinElmer) script parameterized for this assay. In brief, images from fields inside the well were first discarded as out of focus when the intensity in the nuclear area was too low. Then hepatic cells were counted by detecting the nuclei labelled with Hoechst 33342 and parasites were segmented using the HSP70 immuno-labelling. Morphology-based (e.g., area, roundness) and intensity-based features were calculated for each object detected including the hepatocyte nuclei and the parasites. Parasitemia was set as the ratio between parasite number (Alexa fluor positive) and the hepatocyte nuclei count, determined at the same time.
(§3) When an infected mosquito bites a host, ∼100 sporozoites may be injected into the dermis from where they rapidly invade liver cells,[33]. This infective step represents the second bottleneck during transmission and therefore another potentially vulnerable point for intervention. In the absence of a practical liver stage assay measuring the formation of P. falciparum/P. vivax liver schizonts, an equivalent assay was developed in P. yoelii and used to assess the activity of the collection of molecules against this specific stage. Specifically, P. yoelii sporozoites were dissected from the salivary glands of infected mosquitoes and were allowed to invade human hepatocarcinoma cells expressing the CD81 protein. The development of the liver schizonts was monitored by immunofluorescence staining using an HSP70 antibody specific to the parasite (Figure 4A).
Figure 4 Validation and results of anti-infectives tested against P. yoelii liver stage parasites. (A) Opera-generated images from a time point experiment using a 20× objective lens. P. yoelii parasites (red) were visualized using a mouse polyclonal HSP70 antibody, and the HepG2 cells (green) were stained with Hoechst 33342 nucleic acid dye. […] (B) A dose response plot with atovaquone from data generated from the Opera imaging system. The median areas of compound-treated parasites were compared to untreated DMSO controls to determine the degree of inhibition.

Details of data set [2]: method as in PMID 22759078, PMID 17053895, PMID 18694333, PMID 18840754, PMID 19776738. The settings on record: human blood, therapeutic / relevant doses; cited from earlier work.
Data set [3] deals with P. falciparum asexual blood stage parasites (strains NF54, D6, K1, W2, 7G8, TM90C2A, V1/S). Kind of data set: [3H]-hypoxanthine incorporation growth inhibition assay, asexual blood stage. The class given is cell-based, Plasmodium falciparum. As for the experimental part: In vitro antimalarial activity was measured using the [^3H]-hypoxanthine incorporation assay with various strains of P. falciparum obtained from MR4. Results were expressed as the concentration resulting in 50% inhibition (IC50).
The half-maximal inhibitory concentrations (IC50) were determined for each molecule (Table S2).
Figure 2 The potencies of selected antimalarials against asexual blood stages. Main classes of antimalarials were tested against the blood stage of seven Plasmodium falciparum strains in the [^3H]hypoxanthine incorporation assay as described in Vennerstrom et al.. The strains tested here (obtained from MR4) were two drug-sensitive strains NF54 and D6 and five drug-resistant strains: K1, resistant to chloroquine (CQ) and pyrimethamine (PYR), origin Thailand, carries mutations in genes pfmdr1, pfcrt, pfdhfr, pfdhps; W2, resistant to CQ, PYR, quinine, cycloguanil, and sulfadoxine, origin Vietnam; 7G8, resistant to CQ and PYR, origin Brazil; TM90C2A, resistant to CQ, PYR, and MFQ, origin Thailand; and V1/S, resistant to CQ, PYR and cycloguanil, origin Vietnam. Results are expressed as the concentration resulting in 50% growth inhibition (IC50).Values are means of ≥3 independent experiments. (A) Endoperoxides. (B) 4-AQs. (C) 8-AQs and amino alcohols. (D) Antifolates, antibiotics, and others.

In data set [4] the test system is P. berghei ookinete formation. The data set is described as follows: P. berghei ookinete development assay. The class given is cell-based, Plasmodium berghei. The settings on record: for effect on ookinete formation: 10 µM; for inhibition at 10 µM: Plasmodium berghei, box linked to ookinete, read-out: Inhibition at 10 μM (ookinete, Figure 5). As for the experimental part: Compounds and P. berghei gametocyte-infected blood were dispensed in a 96-well plate containing ookinete medium. After 24 h at 19°C, Giemsa-stained ookinetes were counted under the microscope (×40) as previously described,[28].
(§4) Figure 3 The transmission-blocking potential of selected antimalarials in three bioassays that cover different phases of Plasmodium vector stage development. (A) Assays examined exflagellation (P. falciparum), ookinete formation (P. berghei), or oocyst formation (P. falciparum). All antimalarials were screened at 10 µM. (B) The biological content of the in vitro P. berghei ookinete assay spans gamete formation, fertilization, zygote development, and ookinete formation. Ookinete formation was insensitive to most of the antimalarials tested. […] (D) The in vitro P. falciparum exflagellation assay exposes mature gametocytes to antimalarials for 24 h before triggering exflagellation. […] All experiments in triplicate. (E) The in vivo P. falciparum oocyst assay differs from the P. berghei oocyst assay in that mature gametocytes were exposed to the antimalarials in culture for 24 h before feeding to mosquitoes. […] NPC1161-B, lumefantrine, halofantrine, and mefloquine +RS isomer were also active. (n = 4–61 observations; average ± standard error of the mean [SEM]).

Data set [5] relates to P. berghei ookinete formation. Kind of data set: P. berghei ookinete development assay. The class given is cell-based. The settings on record: Plasmodium berghei; medium throughput fluorescent ookinete assay.
Data set [6] deals with P. falciparum mature gametocytes / male gamete exflagellation. Kind of data set: P. falciparum exflagellation assay. The settings on record: for inhibition at 10 µM: Plasmodium falciparum. The class given is cell-based, Plasmodium falciparum. As for the experimental part: After 24 h, exflagellation was triggered by a temperature decrease to ∼21°C and observed 20 min later under the microscope. Highly motile exflagellation centres were recorded for ∼50–150 adjacent fields of view and reported per 10,000 RBCs.
(A) Assays examined exflagellation (P. falciparum), ookinete formation (P. berghei), or oocyst formation (P. falciparum). All antimalarials were screened at 10 µM. (B) The biological content of the in vitro P. berghei ookinete assay spans gamete formation, fertilization, zygote development, and ookinete formation. […] (D) The in vitro P. falciparum exflagellation assay exposes mature gametocytes to antimalarials for 24 h before triggering exflagellation. […] All experiments in triplicate. (E) The in vivo P. falciparum oocyst assay differs from the P. berghei oocyst assay in that mature gametocytes were exposed to the antimalarials in culture for 24 h before feeding to mosquitoes.

The subject of data set [7] is P. falciparum oocyst formation. Kind of data set: Standard membrane feed assay, P. falciparum oocysts in A. stephensi. The class given is in vivo, Plasmodium falciparum. The settings on record: 10 µM, gametocytes exposed 24 h before feeding. As for the experimental part: Gametocyte cultures were produced according to the same protocol as the Pf exflagellation assay. Pooled gametocyte cultures were evenly divided between compounds in fresh medium and incubated at 37°C for 24 h. The parasite pellets were then resuspended in fresh RBCs and human serum treated with the compounds to a 50% haematocrit and immediately fed to mosquitoes as described above and then maintained at 27°C/60%RH for 10–12 d before dissection and counting.
as §4

The subject of data set [8] is Plasmodium oocysts. Kind of data set: Oocyst development / sporogony, Plasmodium species not stated at the place. The class given is in vivo. The settings on record: Plasmodium; 10 μM; box linked to oocysts; read-out: Inhibition at 10 μM (oocysts, Figure 5). As for the experimental part: (§5) Membrane feeds were performed as described previously. Briefly, PbGFPcon-infected mouse blood was mixed with compounds, immediately placed into membrane feeders (39°C) and offered for 30 min to 80–100 overnight-starved A. stephensi (SDA 500 strain). After 7–9 d at 19°C/80%RH, mosquito midguts were dissected out. Midguts were fixed with paraformaldehyde and oocyst number was determined microscopically by semi-automated analysis as previously described.
Gametocyte cultures were produced according to the same protocol as the Pf exflagellation assay. Pooled gametocyte cultures were evenly divided between compounds in fresh medium and incubated at 37°C for 24 h. The parasite pellets were then resuspended in fresh RBCs and human serum treated with the compounds to a 50% haematocrit and immediately fed to mosquitoes as described above and then maintained at 27°C/60%RH for 10–12 d before dissection and counting. […]

Data set [9] deals with P. berghei oocyst formation. Kind of data set: Standard membrane feed assay, P. berghei oocysts in A. stephensi. The data set is classed as in vivo, Plasmodium berghei. The settings on record: 10 µM. As for the experimental part: as §5
Supplementary file pmed.1001169.s001.tif: Figure S1 The transmission-blocking potential of selected compounds against P. berghei in standard membrane feeding assays. All antimalarials were screened at 10 µM in triplicate in independent experiments. The biological content of this assay spans gamete formation through to occyst development all within the gut of the mosquito. […] (TIF) Click here for additional data file.

Data set [10] concerns HepG2 cells. Kind of data set: Growth retardation of HepG2 cells. As for the experimental part: as §1, §2, §3
Where [11] appears, read: HepG2, box linked to liver schizont, read-out: IC50 (liver schizont, Figure 5).
Setting [12] is: Plasmodium falciparum, Erythrocyte, box linked to blood stage schizont, read-out: IC50 (erythrocyte schizont, Figure 5).
[13] abbreviates: read-out: inhibition of exflagellation, 10 µM, 24 h exposure of mature gametocytes.
Setting [14] is: 10 μM, box linked to gametocytes/exflagellation, read-out: Inhibition at 10 μM (gametocytes/exflagellation, Figure 5).

Usually IC50 stands for the concentration at which inhibition is half-maximal. As a reminder, the Cmax is the maximum level reached in the sampled fluid or tissue.

For `CO[C@H]1O[C@@H]2O[C@@]3(C)CC[C@H]4[C@H](C)CC[C@@H]([C@H]1C)[C@@]24OO3` [artemether], the IC50 in data set [1] (setting [11]) is less than 1 µM. Also, the Cmax in data set [2] is 0.1 µM.
As for `O=C1C(O)=C([C@H]2CC[C@H](c3ccc(Cl)cc3)CC2)C(=O)c2ccccc21` [atovaquone], the “potency range against blood stages” value in [3] (P. falciparum blood stages) is “subnanomolar range”. Also, the values for the 50% inhibitory concentration (IC50) in data set [3] (setting [12]), in data set [1] (setting [11]) and in data set [5] were less than 0.001 µM, less than 1 µM and 0.065 µM, respectively. The “fold difference in potency between strains” value in data set [3] (between the strains D6 and V1/S) is given as no more than 10 fold. Also, in data set [4], the “effect on ookinete formation” value is “strongly inhibited ookinete formation”. Besides, the inhibition at 10 µM in data set [4] was greater than 80%.
Consider `OC(c1cc(C(F)(F)F)nc2c(C(F)(F)F)cccc12)C1CCCCN1` (stereo not shown) [mefloquine (+RS)], for which, in data set [3] (strain not specified), the half-inhibitory concentration (IC50) is less than 0.01 µM. The results for the inhibition at 10 µM in data set [6] (setting [13]), in data set [6] (setting [14]) and in data set [8] were greater than 80%, greater than 60% and greater than 90%, respectively. Further, the “transmission-blocking effect on P. falciparum oocysts (words)” value in data set [7] is listed as “totally blocked transmission”; in [7] (listed as mefloquine +RS isomer), “active”.
As to `CCc1nc(N)nc(N)c1-c1ccc(Cl)cc1` [pyrimethamine], the IC50 in [3] (setting [12]) was less than 0.02 µM; in data set [1] (setting [11]), less than 1 µM; in [1] (HepG2, dose response, median parasite area (Opera), read-out: IC50 liver stage), less than 0.01 µM. In [3] (drug-resistant strains), the “resistance / retention of potency against resistant strains” value was “Resistance to pyrimethamine was verified in all drug-resistant strains”. The inhibition at 10 µM in data set [6] (setting [13]) is greater than 80%; in data set [4] it was greater than 80%; in [8], greater than 90%. Also, in data set [4], the “effect on ookinete formation” value is “strongly inhibited ookinete formation”. Further, the “transmission-blocking effect on P. berghei oocysts (words)” value in data set [9] was “most notable transmission-blocking activity”.
Take `COc1ccc2nc3cc(Cl)ccc3c(Nc3cc(CN4CCCC4)c(O)c(CN4CCCC4)c3)c2n1` [pyronaridine]: the IC50 in data set [3] (Plasmodium falciparum, asexual blood stage, all parasite lines) is 0.002 to 0.01 µM; in data set [1] (setting [11]), less than 1 µM; in data set [1] (HepG2, development of P. yoelii liver schizonts following infection of HepG2 cells, read-out: IC50 Parasite), 0.27 ± 0.13 µM; in [1] (HepG2, dose response, read-out: IC50 liver stage), less than 3 µM; in [10] (Homo sapiens, HepG2, read-out: IC50 HepG2) it was less than 0.17 µM; in [5] it was 6 µM. In addition, the “effect on exflagellation (words)” value in data set [6] (10 µM, 24 h exposure of mature gametocytes) is “inhibited P. falciparum exflagellation”; in data set [6] (10 µM, 24 h exposure of mature gametocytes, listed as Pyronaridine), “inhibited exflagellation totally”. Further, the figures for the inhibition at 10 µM in [6] (setting [13]), in [6] (setting [14]) and in data set [4] were greater than 80%, greater than 60% and greater than 80%, respectively. In data set [4], the “effect on ookinete formation” value was “strongly inhibited ookinete formation”. Further, the “CI (cytotoxicity index)” value in data set [10] (IC50 HepG2 compared to IC50 parasite) is less than 0.63.
